In ChEMBL document CHEMBL5678811 (Invest New Drugs, 2014):
Activity calls are given as the source filed them. The rule behind the calls is not given here.

What was measured:
COLO 205 [1] = settings: Homo sapiens, dose 50.0 mg/kg, route po, time 56.0 day
MV4-11 [2] = assay: Cell cycle arrest in human MV4-11 cells assessed as accumulation of cells at G2/M-phase at 5 uM measured after 24 hrs by propidium iodide staining based flow cytometry (reference value: 15.23%); format: functional
Mus musculus [3] = species: Mus musculus; settings: CD1, dose 50.0 mg/kg, route po, time 17.0 day
COLO 205 [4] = settings: Mus musculus, CD1, dose 50.0 mg/kg, route po, time lower 1.0 hrs, time upper […], TDE = time-dependent effect
[5] = Toxicity in human COLO 205 cells xenografted CD1 nu/nu mouse assessed as decrease in red cell mass at 50 mg/kg, po administered daily via gavage for 2 cycles of 3 weeks on/1 week rest and measured on day 41 to 69 by hematological analysis; format: organism-based; settings: in vivo, time 41-69 day
[6] = biological target: T1, Serine/threonine-protein kinase 17A (Homo sapiens) (UniProt Q9UEE5); settings: Sf21, dose 200.0 nM
T1 sequence (whole entry): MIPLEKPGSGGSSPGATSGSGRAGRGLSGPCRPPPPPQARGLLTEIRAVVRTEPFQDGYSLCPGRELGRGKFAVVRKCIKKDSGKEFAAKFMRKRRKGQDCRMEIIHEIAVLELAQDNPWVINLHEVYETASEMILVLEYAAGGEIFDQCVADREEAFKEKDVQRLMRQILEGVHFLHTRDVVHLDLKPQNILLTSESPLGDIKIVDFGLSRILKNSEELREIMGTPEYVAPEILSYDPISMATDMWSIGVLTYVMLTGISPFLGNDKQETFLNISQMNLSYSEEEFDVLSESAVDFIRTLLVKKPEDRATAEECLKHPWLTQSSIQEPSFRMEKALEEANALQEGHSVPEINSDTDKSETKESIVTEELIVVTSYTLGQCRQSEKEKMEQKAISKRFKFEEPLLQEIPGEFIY
Description: Inhibition of recombinant human full-length N-terminal 6His-tagged DRAK1 expressed in baculovirus infected Sf21 cells at 200 nM using ZIPtide as substrate relative to control

Calu-6 [7] = settings: Homo sapiens, dose 50.0 mg/kg, route po, time 21.0 day
COLO 205 [8] = settings: Mus musculus, CD1, dose 50.0 mg/kg, route po
COLO 205 [9] = settings: Homo sapiens, dose 25-100 mg/kg, route po, time 35.0 day
Mus musculus [10] = species: Mus musculus; settings: CD1, dose 50.0 mg/kg, route po, time 22.0 day
[11] = biological target: Cyclin-dependent kinase 5/CDK5 activator 1 (Homo sapiens) (UniProt Q00535+Q15078); settings: Sf21, dose 200.0 nM
Chain of Cyclin-dependent kinase 5/CDK5 activator 1 (Homo sapiens) (Q00535 whole entry): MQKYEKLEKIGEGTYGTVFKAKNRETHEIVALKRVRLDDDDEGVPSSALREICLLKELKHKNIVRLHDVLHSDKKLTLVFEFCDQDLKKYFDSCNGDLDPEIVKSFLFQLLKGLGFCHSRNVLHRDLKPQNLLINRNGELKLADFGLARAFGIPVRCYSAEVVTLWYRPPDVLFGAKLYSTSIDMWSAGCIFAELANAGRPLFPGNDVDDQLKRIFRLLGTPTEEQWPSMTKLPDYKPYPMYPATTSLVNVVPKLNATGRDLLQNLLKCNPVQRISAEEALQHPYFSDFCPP
Chain of Cyclin-dependent kinase 5/CDK5 activator 1 (Homo sapiens) (Q15078 99-307 partner limits assumed): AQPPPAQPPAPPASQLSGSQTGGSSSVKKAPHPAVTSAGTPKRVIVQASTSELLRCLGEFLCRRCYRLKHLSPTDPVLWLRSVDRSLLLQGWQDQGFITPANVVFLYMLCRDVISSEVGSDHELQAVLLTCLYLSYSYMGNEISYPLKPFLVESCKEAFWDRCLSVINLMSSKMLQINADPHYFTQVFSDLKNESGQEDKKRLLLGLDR
Description: Inhibition of recombinant human full-length N-terminal His6-tagged cdk5/N-terminal GST-tagged p25 expressed in baculovirus infected Sf21 cells at 200 nM using histone H1 as substrate relative to control

[12] = Toxicity in human COLO 205 cells xenografted CD1 nu/nu mouse assessed as change in jejunum histology at 50 mg/kg, po administered daily via gavage for 2 cycles of 3 weeks on/1 week rest and measured on day 41 to 69 by histopathological analysis; format: organism-based; settings: in vivo, time 41-69 day
[13] = Toxicity in human COLO 205 cells xenografted CD1 nu/nu mouse assessed as decrease in lymphocyte count at 50 mg/kg, po administered daily via gavage for 2 cycles of 3 weeks on/1 week rest and measured on day 41 to 69 by hematological analysis; format: organism-based; settings: in vivo, time 41-69 day
MV4-11 [14] = assay: Cell cycle arrest in human MV4-11 cells assessed as accumulation of cells at G1-phase at 0.08 uM measured after 24 hrs by propidium iodide staining based flow cytometry (reference value: 61.42%); format: functional
COLO 205 [15] = settings: Homo sapiens, dose 50.0 mg/kg, route po, time 3.0 weeks
Description: Antitumor activity against human COLO 205 cells xenografted in CD1 nu/nu mouse assessed as tumor growth inhibition at 50 mg/kg, po administered daily via gavage for 2 cycles of 3 weeks on/1 week rest

[16] = test system: T2, Receptor-type tyrosine-protein kinase FLT3 (Homo sapiens), P36888 [D835Y]; settings: Sf21, dose 200.0 nM
T2 sequence (whole entry): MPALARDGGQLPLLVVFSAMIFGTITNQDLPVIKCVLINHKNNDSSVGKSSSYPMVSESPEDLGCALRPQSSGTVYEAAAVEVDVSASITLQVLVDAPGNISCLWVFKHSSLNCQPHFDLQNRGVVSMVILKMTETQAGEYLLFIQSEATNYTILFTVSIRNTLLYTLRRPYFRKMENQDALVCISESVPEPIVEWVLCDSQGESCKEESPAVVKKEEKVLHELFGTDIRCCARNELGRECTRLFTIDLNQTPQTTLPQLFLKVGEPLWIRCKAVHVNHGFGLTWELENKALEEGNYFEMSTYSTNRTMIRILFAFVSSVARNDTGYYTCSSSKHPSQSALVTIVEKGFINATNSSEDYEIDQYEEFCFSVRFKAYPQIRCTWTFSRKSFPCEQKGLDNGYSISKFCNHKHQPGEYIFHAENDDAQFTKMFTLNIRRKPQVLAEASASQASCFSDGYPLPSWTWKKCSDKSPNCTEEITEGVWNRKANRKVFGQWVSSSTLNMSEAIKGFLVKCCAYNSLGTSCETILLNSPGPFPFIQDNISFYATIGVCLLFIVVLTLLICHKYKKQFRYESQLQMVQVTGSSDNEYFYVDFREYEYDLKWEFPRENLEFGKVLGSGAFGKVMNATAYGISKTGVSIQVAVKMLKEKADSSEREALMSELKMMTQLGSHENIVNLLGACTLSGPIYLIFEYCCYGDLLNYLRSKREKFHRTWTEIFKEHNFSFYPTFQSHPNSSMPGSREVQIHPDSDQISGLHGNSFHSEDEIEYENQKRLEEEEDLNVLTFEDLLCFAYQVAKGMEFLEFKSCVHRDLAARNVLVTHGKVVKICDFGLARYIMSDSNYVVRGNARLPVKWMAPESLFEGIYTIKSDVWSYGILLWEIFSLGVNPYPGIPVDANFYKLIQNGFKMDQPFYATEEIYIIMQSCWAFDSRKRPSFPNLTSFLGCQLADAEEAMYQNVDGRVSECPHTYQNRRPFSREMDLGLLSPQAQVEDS

Calu-6 [17] = settings: Homo sapiens, dose 50.0 mg/kg, route po, time 16.0 day
MV4-11 [18] = assay: Cell cycle arrest in human MV4-11 cells assessed as accumulation of cells at S-phase at 2.5 uM measured after 24 hrs by propidium iodide staining based flow cytometry (reference value: 23.35%); format: functional
[19] = biological target: Homeodomain-interacting protein kinase 2 (Homo sapiens) (UniProt Q9H2X6); settings: Sf21, dose 200.0 nM
Chain of Homeodomain-interacting protein kinase 2 (Homo sapiens) (Q9H2X6 whole entry, looked up): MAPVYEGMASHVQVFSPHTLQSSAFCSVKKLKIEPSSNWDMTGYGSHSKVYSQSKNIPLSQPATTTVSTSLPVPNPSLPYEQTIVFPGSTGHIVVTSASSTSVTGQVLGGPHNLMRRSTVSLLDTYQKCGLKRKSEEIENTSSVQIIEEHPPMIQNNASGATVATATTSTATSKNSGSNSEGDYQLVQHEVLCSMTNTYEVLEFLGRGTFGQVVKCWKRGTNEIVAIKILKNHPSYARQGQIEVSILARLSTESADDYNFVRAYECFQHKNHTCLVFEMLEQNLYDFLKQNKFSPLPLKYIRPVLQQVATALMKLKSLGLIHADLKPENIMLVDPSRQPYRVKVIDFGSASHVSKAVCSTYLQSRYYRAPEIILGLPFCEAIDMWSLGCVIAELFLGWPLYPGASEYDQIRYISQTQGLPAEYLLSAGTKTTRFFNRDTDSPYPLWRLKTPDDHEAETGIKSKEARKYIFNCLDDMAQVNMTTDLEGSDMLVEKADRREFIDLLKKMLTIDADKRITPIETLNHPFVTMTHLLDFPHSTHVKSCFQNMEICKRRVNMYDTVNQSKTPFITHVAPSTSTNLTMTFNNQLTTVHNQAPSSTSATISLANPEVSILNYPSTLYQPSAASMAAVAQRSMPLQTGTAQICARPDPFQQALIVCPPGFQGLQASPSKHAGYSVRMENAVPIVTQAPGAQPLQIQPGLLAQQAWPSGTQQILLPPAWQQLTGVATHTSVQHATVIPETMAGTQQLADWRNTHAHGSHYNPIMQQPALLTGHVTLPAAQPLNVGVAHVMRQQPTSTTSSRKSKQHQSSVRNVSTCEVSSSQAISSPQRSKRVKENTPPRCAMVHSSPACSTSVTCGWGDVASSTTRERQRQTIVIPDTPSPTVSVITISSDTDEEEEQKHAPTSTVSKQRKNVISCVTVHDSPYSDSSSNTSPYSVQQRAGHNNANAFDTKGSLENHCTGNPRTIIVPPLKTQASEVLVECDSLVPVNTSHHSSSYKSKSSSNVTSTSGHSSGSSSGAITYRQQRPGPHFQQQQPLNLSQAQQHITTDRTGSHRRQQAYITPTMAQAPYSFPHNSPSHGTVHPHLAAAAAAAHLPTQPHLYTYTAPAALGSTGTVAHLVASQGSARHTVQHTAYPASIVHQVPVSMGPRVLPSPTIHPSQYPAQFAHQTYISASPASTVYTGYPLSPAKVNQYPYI
Description: Inhibition of recombinant human N-terminal His6-tagged HIPK2 (165 to 564 residues) expressed in baculovirus infected Sf21 insect cells at 200 nM using MBP as substrate relative to control

COLO 205 [20] = settings: Homo sapiens, dose 50.0 mg/kg, route po, time > 3.0 weeks
Description: Antitumor activity against human COLO 205 cells xenografted in CD1 nu/nu mouse assessed as tumor growth inhibition at 50 mg/kg, po administered daily via gavage for 2 cycles of over 3 weeks on/1 week rest

[21] = biological target: Mitogen-activated protein kinase 10 (Homo sapiens) (UniProt P53779); settings: Sf21, dose 200.0 nM
Chain of Mitogen-activated protein kinase 10 (Homo sapiens) (P53779 whole entry): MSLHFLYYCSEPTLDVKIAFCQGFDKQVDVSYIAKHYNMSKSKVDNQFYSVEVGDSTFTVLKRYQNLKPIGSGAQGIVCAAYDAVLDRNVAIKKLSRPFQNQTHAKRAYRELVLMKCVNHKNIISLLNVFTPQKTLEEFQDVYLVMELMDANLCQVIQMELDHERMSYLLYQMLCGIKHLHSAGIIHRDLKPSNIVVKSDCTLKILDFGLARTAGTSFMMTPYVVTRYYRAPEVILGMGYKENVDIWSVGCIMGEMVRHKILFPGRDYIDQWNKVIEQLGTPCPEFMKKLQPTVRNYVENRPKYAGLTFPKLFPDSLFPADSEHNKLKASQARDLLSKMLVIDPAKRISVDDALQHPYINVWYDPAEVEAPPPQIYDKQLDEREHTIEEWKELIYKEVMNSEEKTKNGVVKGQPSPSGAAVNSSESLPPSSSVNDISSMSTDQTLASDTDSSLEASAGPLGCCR
Description: Inhibition of recombinant human N-terminal His6-tagged JNK3 expressed in baculovirus infected Sf21 insect cells relative to control

## CCN1CCN(Cc2ccc(Nc3ncc(F)c(-c4cc(F)c5nc(C)n(C(C)C)c5c4)n3)nc2)CC1 [ABEMACICLIB]
COLO 205 [1]
  TGI: Active
MV4-11 [2]
  Activity: 0.54%
Mus musculus [3]
  inhibition: Active
COLO 205 [4]
  inhibition: Tde
[5]
  Activity: Non-Toxic
[6]
  inhibition: > 90%
Calu-6 [7]
  TGI: Active
COLO 205 [8]
  inhibition: Active
COLO 205 [9]
  TGI: Dose-Dependent Effect
Mus musculus [10]
  inhibition: inactive
[11]
  inhibition: > 90%
[12]
  Activity: Non-Toxic
[13]
  Activity: Non-Toxic
MV4-11 [14]
  Activity: 89.44%
COLO 205 [15]
  TGI: Active
[16]
  inhibition: > 90%
Calu-6 [17]
  TGI: Active
MV4-11 [18]
  Activity: 2.99%
[19]
  inhibition: > 90%
COLO 205 [20]
  TGI: Active
[21]
  inhibition: > 90%
